{
  "source": "paper PMC7089538",
  "about": "“The effects of intra-stomach obestatin administration on intestinal contractility in neonatal piglets fed milk formula” (PLoS ONE, 2020)",
  "key": {"duodenum [1]": {"test_system": "duodenum", "conditions": "duodenum strips; for EFS-evoked amplitude of contraction: 6 days, mean ± SEM"}, "duodenum [2]": {"test_system": "duodenum", "test": "ACh-stimulated or atropine-treated contractions", "assay_type": "in vivo, piglets (Polish Landrace x Pietrain)", "conditions": "6 days, duodenum strips, mean ± SEM", "procedure": "(§1) Piglets' BW was recorded every morning. […] The protein concentration in the milk formula was 20%. […] The tissues were attached to isotonic transducers (Letica Scientific Instruments, Spain) under a load of 1.0 g that were coupled with a PowerLab recording system (ADInstruments, Sydney, Australia). […] The tissues were then washed and allowed to equilibrate. […] Half of randomly selected jejunal segments were pre-treated with atropine."}, "middle jejunum": {"test_system": "middle jejunum", "test": "ACh-stimulated or atropine-treated contractions", "assay_type": "in vivo, piglets (Polish Landrace x Pietrain)", "conditions": "6 days, middle jejunum strips, mean ± SEM", "procedure": "as §1"}, "[3]": {"conditions": "O2: obestatin 2 μg/kg BW intra-stomach every 8 h, ACh^-4 (10^−4 M, cumulative)"}, "[4]": {"conditions": "O2: obestatin 2 μg/kg BW intra-stomach every 8 h, ACh^-5 (10^−5 M, cumulative)"}, "[5]": {"conditions": "O2: obestatin 2 μg/kg BW intra-stomach every 8 h, ACh^-6 (10^−6 M, cumulative)"}, "[6]": {"conditions": "O2: obestatin 2 μg/kg BW intra-stomach every 8 h, ACh^-7 (10^−7 M, cumulative)"}, "[7]": {"conditions": "O2: obestatin 2 μg/kg BW intra-stomach every 8 h, ACh^-8 (10^−8 M, cumulative)"}, "[8]": {"conditions": "O2: obestatin 2 μg/kg BW intra-stomach every 8 h, atropine pretreatment (ATR^-6)"}, "[9]": {"conditions": "O10: obestatin 10 μg/kg BW intra-stomach every 8 h, ACh^-4 (10^−4 M, cumulative)"}, "[10]": {"conditions": "O10: obestatin 10 μg/kg BW intra-stomach every 8 h, ACh^-5 (10^−5 M, cumulative)"}, "[11]": {"conditions": "O10: obestatin 10 μg/kg BW intra-stomach every 8 h, ACh^-6 (10^−6 M, cumulative)"}},
  "note": "Read-outs that look alike come from different tables or passages of the source. Marks after values point to notes of the source that are not given here. Where no end group is shown, it is not given here.",
  "data": [
    {"substance": "FNAPFDVGIKLSGAQYQQHGRAL-NH2 [obestatin]", "values": [
      {"measurement": "EFS-evoked amplitude of contraction", "setting": "duodenum [1]; O2: obestatin 2 μg/kg BW intra-stomach every 8 h, Basal, EFS 0.5 Hz", "value": "2.53 ± 0.31^a mm"},
      {"measurement": "EFS-evoked amplitude of contraction", "setting": "duodenum [1]; O2: obestatin 2 μg/kg BW intra-stomach every 8 h, Basal, EFS 5 Hz", "value": "2.78 ± 0.35^a mm"},
      {"measurement": "EFS-evoked amplitude of contraction", "setting": "duodenum [1]; O2: obestatin 2 μg/kg BW intra-stomach every 8 h, Basal, EFS 50 Hz", "value": "2.95 ± 0.28^a^c mm"},
      {"measurement": "EFS-evoked amplitude of contraction", "setting": "duodenum [1]; O2: obestatin 2 μg/kg BW intra-stomach every 8 h, TTX 10^−6 M, EFS 0.5 Hz", "value": "0.48 ± 0.11", "unit": "mm"},
      {"measurement": "EFS-evoked amplitude of contraction", "setting": "duodenum [1]; O2: obestatin 2 μg/kg BW intra-stomach every 8 h, TTX 10^−6 M, EFS 5 Hz", "value": "0.54 ± 0.11", "unit": "mm"},
      {"measurement": "EFS-evoked amplitude of contraction", "setting": "duodenum [1]; O2: obestatin 2 μg/kg BW intra-stomach every 8 h, TTX 10^−6 M, EFS 50 Hz", "value": "0.82 ± 0.21", "unit": "mm"},
      {"measurement": "EFS-evoked amplitude of contraction", "setting": "duodenum [1]; O10: obestatin 10 μg/kg BW intra-stomach every 8 h, Basal, EFS 0.5 Hz", "value": "1.08 ± 0.26^b mm"},
      {"measurement": "EFS-evoked amplitude of contraction", "setting": "duodenum [1]; O10: obestatin 10 μg/kg BW intra-stomach every 8 h, Basal, EFS 5 Hz", "value": "1.25 ± 0.32^b mm"},
      {"measurement": "EFS-evoked amplitude of contraction", "setting": "duodenum [1]; O10: obestatin 10 μg/kg BW intra-stomach every 8 h, Basal, EFS 50 Hz", "value": "1.20 ± 0.29^a^d mm"},
      {"measurement": "EFS-evoked amplitude of contraction", "setting": "duodenum [1]; O10: obestatin 10 μg/kg BW intra-stomach every 8 h, TTX 10^−6 M, EFS 0.5 Hz", "value": "0.56 ± 0.16", "unit": "mm"},
      {"measurement": "EFS-evoked amplitude of contraction", "setting": "duodenum [1]; O10: obestatin 10 μg/kg BW intra-stomach every 8 h, TTX 10^−6 M, EFS 5 Hz", "value": "0.59 ± 0.15", "unit": "mm"},
      {"measurement": "EFS-evoked amplitude of contraction", "setting": "duodenum [1]; O10: obestatin 10 μg/kg BW intra-stomach every 8 h, TTX 10^−6 M, EFS 50 Hz", "value": "0.86 ± 0.22", "unit": "mm"},
      {"measurement": "EFS-evoked amplitude of contraction", "setting": "duodenum [1]; O15: obestatin 15 μg/kg BW intra-stomach every 8 h, Basal, EFS 0.5 Hz", "value": "2.34 ± 0.30^a mm"},
      {"measurement": "EFS-evoked amplitude of contraction", "setting": "duodenum [1]; O15: obestatin 15 μg/kg BW intra-stomach every 8 h, Basal, EFS 5 Hz", "value": "2.74 ± 0.37^a mm"},
      {"measurement": "EFS-evoked amplitude of contraction", "setting": "duodenum [1]; O15: obestatin 15 μg/kg BW intra-stomach every 8 h, Basal, EFS 50 Hz", "value": "3.38 ± 0.36^b^c mm"},
      {"measurement": "EFS-evoked amplitude of contraction", "setting": "duodenum [1]; O15: obestatin 15 μg/kg BW intra-stomach every 8 h, TTX 10^−6 M, EFS 0.5 Hz", "value": "0.40 ± 0.09", "unit": "mm"},
      {"measurement": "EFS-evoked amplitude of contraction", "setting": "duodenum [1]; O15: obestatin 15 μg/kg BW intra-stomach every 8 h, TTX 10^−6 M, EFS 5 Hz", "value": "0.46 ± 0.01", "unit": "mm"},
      {"measurement": "EFS-evoked amplitude of contraction", "setting": "duodenum [1]; O15: obestatin 15 μg/kg BW intra-stomach every 8 h, TTX 10^−6 M, EFS 50 Hz", "value": "0.77 ± 0.22", "unit": "mm"},
      {"measurement": "effect of obestatin on EFS-evoked contraction following pre-incubation with TTX", "setting": "duodenum [1]; TTX 10^−6 M, responses similar to saline-treated preparations", "value": "the effects of obestatin were blocked"},
      {"measurement": "amplitude of ACh stimulated contractions", "setting": "duodenum [2]; [3]", "value": "14.1 ± 1.2^a^b mm"},
      {"measurement": "amplitude of ACh stimulated contractions", "setting": "duodenum [2]; [4]", "value": "11.2 ± 0.7", "unit": "mm"},
      {"measurement": "amplitude of ACh stimulated contractions", "setting": "duodenum [2]; [5]", "value": "7.4 ± 0.9", "unit": "mm"},
      {"measurement": "amplitude of ACh stimulated contractions", "setting": "duodenum [2]; [6]", "value": "7.1 ± 0.7", "unit": "mm"},
      {"measurement": "amplitude of ACh stimulated contractions", "setting": "duodenum [2]; [7]", "value": "7.0 ± 0.7", "unit": "mm"},
      {"measurement": "amplitude of ACh stimulated contractions", "setting": "duodenum [2]; O2: obestatin 2 μg/kg BW intra-stomach every 8 h, ACh^-9 (10^−9 M, cumulative)", "value": "6.2 ± 0.3", "unit": "mm"},
      {"measurement": "amplitude of atropine treated contractions", "setting": "duodenum [2]; [8]", "value": "1.26 ± 0.2", "unit": "mm"},
      {"measurement": "amplitude of ACh stimulated contractions", "setting": "duodenum [2]; [9]", "value": "12.3 ± 1.1^a^b mm"},
      {"measurement": "amplitude of ACh stimulated contractions", "setting": "duodenum [2]; [10]", "value": "8.2 ± 0.9", "unit": "mm"},
      {"measurement": "amplitude of ACh stimulated contractions", "setting": "duodenum [2]; [11]", "value": "6.3 ± 0.9", "unit": "mm"},
      {"measurement": "amplitude of ACh stimulated contractions", "setting": "duodenum [2]; O10: obestatin 10 μg/kg BW intra-stomach every 8 h, ACh^-7 (10^−7 M, cumulative)", "value": "6.1 ± 0.9", "unit": "mm"},
      {"measurement": "amplitude of ACh stimulated contractions", "setting": "duodenum [2]; O10: obestatin 10 μg/kg BW intra-stomach every 8 h, ACh^-8 (10^−8 M, cumulative)", "value": "6.0 ± 0.8", "unit": "mm"},
      {"measurement": "amplitude of ACh stimulated contractions", "setting": "duodenum [2]; O10: obestatin 10 μg/kg BW intra-stomach every 8 h, ACh^-9 (10^−9 M, cumulative)", "value": "5.9 ± 0.9", "unit": "mm"},
      {"measurement": "amplitude of ACh stimulated contractions", "setting": "duodenum [2]; O15: obestatin 15 μg/kg BW intra-stomach every 8 h, ACh^-4 (10^−4 M, cumulative)", "value": "15.1 ± 0.4^b mm"},
      {"measurement": "amplitude of ACh stimulated contractions", "setting": "duodenum [2]; O15: obestatin 15 μg/kg BW intra-stomach every 8 h, ACh^-5 (10^−5 M, cumulative)", "value": "9.6 ± 0.6", "unit": "mm"},
      {"measurement": "amplitude of ACh stimulated contractions", "setting": "duodenum [2]; O15: obestatin 15 μg/kg BW intra-stomach every 8 h, ACh^-6 (10^−6 M, cumulative)", "value": "6.7 ± 0.8", "unit": "mm"},
      {"measurement": "amplitude of ACh stimulated contractions", "setting": "duodenum [2]; O15: obestatin 15 μg/kg BW intra-stomach every 8 h, ACh^-7 (10^−7 M, cumulative)", "value": "5.9 ± 0.6", "unit": "mm"},
      {"measurement": "amplitude of ACh stimulated contractions", "setting": "duodenum [2]; O15: obestatin 15 μg/kg BW intra-stomach every 8 h, ACh^-8 (10^−8 M, cumulative)", "value": "5.4 ± 0.4", "unit": "mm"},
      {"measurement": "amplitude of ACh stimulated contractions", "setting": "duodenum [2]; O15: obestatin 15 μg/kg BW intra-stomach every 8 h, ACh^-9 (10^−9 M, cumulative)", "value": "5.3 ± 0.5", "unit": "mm"},
      {"measurement": "amplitude of ACh stimulated contractions", "setting": "middle jejunum; [3]", "value": "12.3 ± 1.0^a^b mm"},
      {"measurement": "amplitude of ACh stimulated contractions", "setting": "middle jejunum; [4]", "value": "8.0 ± 0.9", "unit": "mm"},
      {"measurement": "amplitude of ACh stimulated contractions", "setting": "middle jejunum; [5]", "value": "6.3 ± 0.9^a^b mm"},
      {"measurement": "amplitude of ACh stimulated contractions", "setting": "middle jejunum; [6]", "value": "6.1 ± 0.8", "unit": "mm"},
      {"measurement": "amplitude of ACh stimulated contractions", "setting": "middle jejunum; [7]", "value": "6.0 ± 0.7", "unit": "mm"},
      {"measurement": "amplitude of atropine treated contractions", "setting": "middle jejunum; [8]", "value": "0.97 ± 0.1^a^b mm"},
      {"measurement": "amplitude of ACh stimulated contractions", "setting": "middle jejunum; [9]", "value": "12.5 ± 0.9^b mm"},
      {"measurement": "amplitude of ACh stimulated contractions", "setting": "middle jejunum; [10]", "value": "10.1 ± 0.7", "unit": "mm"},
      {"measurement": "amplitude of ACh stimulated contractions", "setting": "middle jejunum; [11]", "value": "7.0 ± 0.9^b mm"}
    ]}
  ]
}
